# Measured values reported in US20240269296A1, “ANTIOXIDANT NUCLEOLIPID PRODRUG, PHARMACEUTICAL COMPOSITION FOR ADMINISTRATION THEREOF, AND THERAPEUTIC USES THEREOF” (UNIVERSITE DE BORDEAUX, priority 2021, published 2024).
# Tested on: keratinocytes
# Experiment: Antioxidant effect on keratinocytes: ROS by flow cytometry with CM-H2DCFDA after solar simulator irradiation
# Format: cell-based
# Settings: 2nd experiment: incubation 48 h, 0.5% w/v in the culture medium
# Description: The assessment of the antioxidant effect of the compositions C3 and C4 according to the invention has been based on the dosage of the amount of reactive oxygen species (ROS) produced in the medium by flow cytometry, after setting the cells treated with these compositions in presence with the oxidative stress indicator CM-H2DCFDA (5-(and-6)-chlorométhyl-2′,7′-dichlorodihydrofluorescein diacetate, acetyl ester) (Invitrogen®). By cleavage of its acetate groups with esterases and its intracellular oxidation by the ROS, this non-fluorescent indicator is converted into highly-fluorescent dichlorofluorescein 2′,7′ (DCF). Thus, the measurement of the fluorescence intensity allows deducing the amount of DCF, and consequently of ROS, in the cell medium. […]
# Afterwards, the cells have been detached by tryptinisation by means of trypsin at 0.0025% and EDTA at 0.01% for 10 min at 37° C., neutralised by fetal calf serum at 10% and separated from the medium by centrifugation. […] Afterwards, the fluorescence has been read by a flow cytometer Accuri® 6.
# The obtained results, expressed in % of mean fluorescence intensity (MFI) with respect to the non-irradiated (and without C4) control condition, are shown in FIG. 11. […]
structure (smiles),measurement,value
Cc1c(C)c2c(c(C)c1O)CC[C@@](C)(CCC[C@H](C)CCC[C@H](C)CCCC(C)C)O2 [α-tocopherol],production of ROS (% of mean fluorescence intensity vs non-irradiated control),strongly inhibits the production of ROS
